# Data published in US12121526B2, “Targeting NCCA-ATP channel for organ protection following ischemic episode” (University of Maryland, Baltimore, priority 2007, dated 2024).
# pEC50, pIC50: −log10 of the molar value. Entries after “also recorded” stand apart in the source; their conditions may differ. Counter-ions that a name gives are not always drawn. Like-named read-outs stand apart in the source and are kept apart here.
# Assays:
# NCCa-ATP channel [1] = target: T1, NCCa-ATP channel (Rattus norvegicus, UniProt Q09429); settings: cited from earlier work
# T1 construct: endogenous in cells; host or cells: freshly isolated native reactive astrocytes (NRA/R1 astrocytes) from the hypoxic inner zone of the gliotic capsule in brain
# NCCa-ATP channel [2] = target: T1, NCCa-ATP channel; experiment: Patch clamp of NCCa-ATP channel in freshly isolated native reactive astrocytes; format: cell-based; settings: for pEC50: read-out: [ATP]1 EC50 (um)
# Text: The NCCa-ATP channel is a 35 pS cation channel that conducts all inorganic monovalent cations (Na^+, K^+, Cs^+, Li^+, Rb^+), but is impermeable to Ca^2+ and Mg^2+ (Chen and Simard, 2001). […] Studies using a variety of organic monovalent cations indicate that the channel has an equivalent pore radius of 0.41 nm.
# The NCCa-ATP channel is believed to be composed of pore-forming and regulatory subunits. The regulatory subunit is sulfonylurea receptor 1 (SUR1), the same as that for KATP channels in pancreatic β cells (Chen et al., 2003), and so NCCa-ATP and pancreatic KATP channels have pharmacological profiles that resemble each other closely. […] Knockdown of SUR1 using antisense-oligodeoxynucleotide reduces SUR1 expression (Simard et al., 2006) and prevents expression of functional NCCa-ATP channels.
# global cerebral ischemia = settings: in vivo; cited from earlier work
# [3] = system: permanent middle cerebral artery occlusion; settings: cited from earlier work
# [4] = system: temporary middle cerebral artery occlusion; settings: cited from earlier work
# NCCa-ATP channels = experiment: Nystatin-perforated patch clamp of hypoxic endothelial cells, current activated by Na+ azide; format: cell-based, human; settings: 1 μM; hypoxic conditions
# Protocol: Patch clamp of endothelial cells was performed using a nystatin-perforated patch technique, to maintain the metabolic integrity of the cells. The identity of the activated channel can be assessed by measurement of the “reversal potential”, the potential at which an ion channel current reverses from inward to outward. With physiologically relevant concentrations of ions intracellularly and extracellularly (high potassium inside, high sodium outside), the reversal potential can unambiguously distinguish between a K^+ channel current such as KATP, which reverses negative to −50 mV and a non-selective cation channel current such as NCCa-ATP, which reverses near 0 mV.
# Channel activation was also studied upon induction by Na^+ azide, a […] that depletes cellular ATP (Chen and Simard, 2001).
# [5] = system: freshly isolated reactive astrocytes; settings: cited from earlier work; for Cell blebbing: glibenclamide with 1 mM Na azide, diazoxide alone without ATP depletion
# [6] = system: large MCA stroke associated with malignant cerebral edema; settings: cited from earlier work
# [7] = system: stroke induced by thromboemboli; settings: constant infusion 75-200 ng/h; cited from earlier work
# [8] = system: freshly isolated reactive astrocytes; settings: 1 mM Na azide; 1 μM glibenclamide; cited from earlier work
# [9] = system: cervical spinal cord contusion injury; experiment: Rat cervical hemi-cord contusion spinal cord injury model; format: in vivo
# Text: The cervical contusion SCI model that is used is that of Soblosky et al. (2001). Adult female Long-Evans rats are anesthetized (Ketamine and Xylazine) and a hemilaminectomy is made at C4-5 to expose the dura. A hemi-cervical spinal cord contusion is created using a blunt force impactor (see details below “The model of contusion SCI”).
# To generate the injury for the data shown here, the impactor was activated using a 10-gm weight dropped from 2.5 cm.
# Animals were sacrificed at ¾ hr and 24 hr after contusion SCI (n=5 rats per group), they were perfused with heparinized saline to remove intravascular blood, and 5-mm segments of cord encompassing the lesion were homogenized and processed using Drabkin's reagent to convert hemoglobin to cyanomethemoglobin for spectrophotometric measurements (Choudhri et al., 1997).
# Animals underwent the same SCI as above, and immediately after, were implanted with mini-osmotic pumps (Alzet 2002, 14 day pump, […]; Durect Corporation, Cupertino, CA) that delivered either saline or drug s.q.
# Spinal cords were examined 24 hr after SCI. […] In other rats, […] sections of cord were harvested that encompassed the contusion site and we quantified the amount of blood present in tissues after removal of intravascular blood by perfusion at time of euthanasia (n=5-6 rats per group).
# As previously described (Gensel et al., 2006), rats were placed in a glass cylinder to which they had not been previously exposed. A peanut butter treat was placed 8 inches above the floor, and the number of seconds spent with both front paws elevated above shoulder-height was counted during a 3-min period of observation.
# recombinant MMP = experiment: Zymography of gelatinase activity of recombinant MMP; format: biochemical; settings: glibenclamide 10 μM; MMP-inhibitor II 300 nM
# Text: In stroke, hemorrhagic conversion has been attributed to activation of matrix metalloproteinases (MMP) (Gidday et al., 2005; Justicia et al., 2003; Lorenzl et al., 2003; Romanic et al., 1998). […] This was studied directly using zymography of recombinant MMPs.
# transient focal ischemia = settings: pre- or post-ischemic administration; cited from earlier work
# [10] = system: isolated retina of chick embryo; settings: glucose/oxygen deprivation or excitotoxic conditions; cited from earlier work
# permanent MCAO = settings: given 30 min after initiation of permanent MCAO; cited from earlier work
# [11] = target: T2, SUR1-regulated NCCa-ATP channel (Homo sapiens, UniProt Q09428); experiment: Patch clamp of cultured human aortic endothelial cells after hypoxia; format: cell-based
# T2 construct: cultured endothelial cells from human aorta (ScienCell, SanDiego CA) were also studied; host or cells: human aortic endothelial cells (HAEC) cultured under hypoxia (1% O2)
# T2 sequence (Q09428 whole entry): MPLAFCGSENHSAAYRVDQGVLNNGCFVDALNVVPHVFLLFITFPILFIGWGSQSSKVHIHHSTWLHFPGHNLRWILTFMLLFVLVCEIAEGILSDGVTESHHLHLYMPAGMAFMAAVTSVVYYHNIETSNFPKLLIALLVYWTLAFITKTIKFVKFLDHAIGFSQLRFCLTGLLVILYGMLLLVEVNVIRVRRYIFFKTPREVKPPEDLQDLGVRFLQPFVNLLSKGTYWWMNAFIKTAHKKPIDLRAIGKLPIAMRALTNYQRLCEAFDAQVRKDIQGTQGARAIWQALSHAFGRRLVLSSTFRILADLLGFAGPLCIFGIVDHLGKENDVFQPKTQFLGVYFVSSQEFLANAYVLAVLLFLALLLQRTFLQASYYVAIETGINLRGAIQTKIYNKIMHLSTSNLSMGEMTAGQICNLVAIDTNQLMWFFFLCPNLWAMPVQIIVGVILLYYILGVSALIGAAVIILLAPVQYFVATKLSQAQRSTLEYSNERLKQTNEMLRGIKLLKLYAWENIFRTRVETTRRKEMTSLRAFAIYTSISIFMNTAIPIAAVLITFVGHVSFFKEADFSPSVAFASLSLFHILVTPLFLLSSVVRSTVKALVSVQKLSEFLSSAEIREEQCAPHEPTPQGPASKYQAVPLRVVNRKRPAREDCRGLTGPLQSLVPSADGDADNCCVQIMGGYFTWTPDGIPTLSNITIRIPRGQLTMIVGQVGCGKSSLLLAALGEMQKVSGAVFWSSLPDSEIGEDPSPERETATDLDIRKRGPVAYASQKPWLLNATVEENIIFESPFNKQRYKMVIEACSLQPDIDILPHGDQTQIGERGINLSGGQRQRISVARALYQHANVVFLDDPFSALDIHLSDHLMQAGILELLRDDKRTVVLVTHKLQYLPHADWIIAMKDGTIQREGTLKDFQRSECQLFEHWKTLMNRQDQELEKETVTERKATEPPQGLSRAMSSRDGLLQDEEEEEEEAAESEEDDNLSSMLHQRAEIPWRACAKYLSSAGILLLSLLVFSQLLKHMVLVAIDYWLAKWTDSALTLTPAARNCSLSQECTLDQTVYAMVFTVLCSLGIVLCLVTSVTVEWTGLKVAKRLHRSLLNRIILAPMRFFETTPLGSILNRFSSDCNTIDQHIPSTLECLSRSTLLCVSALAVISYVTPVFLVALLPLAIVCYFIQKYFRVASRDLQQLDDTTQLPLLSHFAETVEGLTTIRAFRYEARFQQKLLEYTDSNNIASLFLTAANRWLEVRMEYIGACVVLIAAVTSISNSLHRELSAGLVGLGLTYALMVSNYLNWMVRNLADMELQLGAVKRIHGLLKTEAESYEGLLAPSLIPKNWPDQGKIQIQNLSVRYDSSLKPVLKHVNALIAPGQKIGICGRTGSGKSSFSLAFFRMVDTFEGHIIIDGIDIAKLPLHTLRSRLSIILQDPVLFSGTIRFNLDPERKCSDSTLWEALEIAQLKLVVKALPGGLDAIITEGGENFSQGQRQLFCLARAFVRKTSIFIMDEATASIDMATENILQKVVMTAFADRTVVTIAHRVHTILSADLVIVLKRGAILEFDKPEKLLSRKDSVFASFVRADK
# T2 sequence (Q8TD43 whole entry partner): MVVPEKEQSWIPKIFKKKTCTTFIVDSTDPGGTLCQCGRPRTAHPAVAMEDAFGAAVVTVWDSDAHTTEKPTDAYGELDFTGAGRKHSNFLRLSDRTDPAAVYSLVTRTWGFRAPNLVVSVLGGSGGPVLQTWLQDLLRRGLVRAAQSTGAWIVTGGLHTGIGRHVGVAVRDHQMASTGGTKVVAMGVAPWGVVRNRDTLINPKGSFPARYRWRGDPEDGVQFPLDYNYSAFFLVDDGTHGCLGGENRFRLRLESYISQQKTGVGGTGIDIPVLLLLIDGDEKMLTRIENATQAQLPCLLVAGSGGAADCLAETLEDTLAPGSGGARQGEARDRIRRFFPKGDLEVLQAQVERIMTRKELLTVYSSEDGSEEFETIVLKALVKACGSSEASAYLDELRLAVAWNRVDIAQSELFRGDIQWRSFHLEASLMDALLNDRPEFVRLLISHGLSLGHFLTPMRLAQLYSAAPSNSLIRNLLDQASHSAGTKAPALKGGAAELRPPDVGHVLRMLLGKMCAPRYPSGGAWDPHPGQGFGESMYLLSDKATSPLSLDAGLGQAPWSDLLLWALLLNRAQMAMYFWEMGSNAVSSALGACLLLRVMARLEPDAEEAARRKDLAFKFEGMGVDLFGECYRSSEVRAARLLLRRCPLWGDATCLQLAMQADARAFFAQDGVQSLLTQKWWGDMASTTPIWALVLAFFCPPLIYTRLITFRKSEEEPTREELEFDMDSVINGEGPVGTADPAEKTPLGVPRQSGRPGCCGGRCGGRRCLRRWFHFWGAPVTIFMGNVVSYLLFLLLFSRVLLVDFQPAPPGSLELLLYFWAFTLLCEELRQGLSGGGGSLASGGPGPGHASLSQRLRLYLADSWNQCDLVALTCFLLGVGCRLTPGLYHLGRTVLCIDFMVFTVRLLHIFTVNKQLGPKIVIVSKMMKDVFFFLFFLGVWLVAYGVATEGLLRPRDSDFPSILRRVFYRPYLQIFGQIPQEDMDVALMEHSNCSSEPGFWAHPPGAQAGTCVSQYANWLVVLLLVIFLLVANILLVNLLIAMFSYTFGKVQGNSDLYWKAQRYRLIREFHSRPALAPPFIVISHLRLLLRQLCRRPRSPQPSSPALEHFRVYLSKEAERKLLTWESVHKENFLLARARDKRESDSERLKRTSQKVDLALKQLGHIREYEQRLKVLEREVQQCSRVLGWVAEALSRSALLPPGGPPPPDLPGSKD
# Text: In addition to studying freshly isolated capillary endothelial cells from rat spinal cord, cultured endothelial cells from human aorta (ScienCell, SanDiego CA) were also studied. The purpose with these studies was to investigate whether hypoxia/ischemia can lead to up-regulation of the SUR1-regulated NCCa-ATP channels in endothelial cells, a finding that was previously reported for astrocytes and neurons (Chen et al., 2003; Simard et al., 2006), but not endothelial cells. Endothelial cells were cultured under normoxic (room air) and hypoxic (1% 02) conditions. Cells cultured under both conditions were immunolabeled for SUR1, the regulatory subunit of both KATP and NCCa-ATP channels.
# The diazoxide-induced current (difference current in FIG. 15A) reversed at E(K) consistent with an SUR1-regulated KATP channel current.
# Inside-out patches from cells maintained under hypoxic conditions were also studied. […]
# Patch clamp of endothelial cells was performed using a nystatin-perforated patch technique, to maintain the metabolic integrity of the cells. The identity of the activated channel can be assessed by measurement of the “reversal potential”, the potential at which an ion channel current reverses from inward to outward. […]
# [12] = target: receptor-mediated Ca2+ entry; settings: cited from earlier work
# [13] = Membrane Preparation derived from freshly isolated native reactive astrocytes
# [14] = after 6 h of vascular occlusion
smiles,measurement,setting,value
Nc1ncnc2c1ncn2[C@@H]1O[C@H](COP(=O)(O)O)[C@@H](O)[C@H]1O [AMP],Effect on channel opening,NCCa-ATP channel [1],unaffected
same,Effect on channel,NCCa-ATP channel [2]; [13],No channel effect
same,Effect on channel,NCCa-ATP channel [2]; Reactive Astrocytes,No channel effect
Nc1ncnc2c1ncn2[C@@H]1O[C@H](COP(=O)(O)OP(=O)(O)O)[C@@H](O)[C@H]1O [ADP],Effect on channel opening,NCCa-ATP channel [1],unaffected
same,Effect on channel,NCCa-ATP channel [2]; [13],No channel effect
same,Effect on channel,NCCa-ATP channel [2]; Reactive Astrocytes,No channel effect
COc1cc(CNC(=O)CCCC/C=C/C(C)C)ccc1O [capsaicin],"Electroencephalographic changes, hyperlocomotion and memory impairment induced by global ischemia",global cerebral ischemia,antagonize
"COc1cc2c(cc1OC)C(C(C(=O)N(CCc1ccc(OC)c(OC)c1OC)CCc1ccc(OC)c(OC)c1OC)c1ccccc1)=NCC2 (racemic) [pinokalant, (R,S)-(3,4-dihydro-6,7-dimethoxy-isoquinoline-1-yl)-2-phenyl-N,N-di[2-(2,3,4-trimethoxyphenyl)ethyl]-acetamide]",Blood flow,[3]; [14],significantly higher
same,Reduction of the volume of ATP-depleted and morphologically injured tissue (infarct core),[3]; [14],60-70%
same,Decrease of ADC lesion volume,"[3]; initial 6 h of vascular occlusion, untreated increased by approximately 50%",approximately 20%
same,DWI-derived infarct volume,[4]; 4 h after MCAO,significantly smaller
same,Neurological scores,[4]; at 24 h,significantly better
same,TTC-derived infarct volume,[4]; postmortem,significantly attenuated
COc1ccc(Cl)cc1C(=O)NCCc1ccc(S(=O)(=O)NC(=O)NC2CCCCC2)cc1 [glibenclamide],Ohmic current activated by Na+ azide-induced ATP depletion,NCCa-ATP channels,blocked
same,Membrane depolarization,[5]; cells exposed to Na+ azide to deplete ATP,blocks
same,Cell blebbing,[5],significantly reduces; also recorded: completely prevented; also recorded: blocked
same,Reduction of mortality,[6]; constant infusion 75-200 ng/h,by half
same,7-day mortality,"[6]; control rats 68%, n=29 in each group",28%
same,Reduction of cerebral edema / ionic edema (excess water),"[6]; low-dose, post-ischemic",reduced by half
same,Reduction of lesion volume / stroke size,[7],reduced by half
same,Necrotic cell death induced by Na azide,[8],significantly reduced; also recorded: significant reduced
same,Hemorrhage at the contusion site,"[9]; 24 hr after SCI, 75 ng/hr s.q.",significantly reduced; also recorded: less prominent
same,Blood in 6-mm cord segment encompassing the contusion,"[9]; 24 hr after SCI, 75 ng/hr s.q., vehicle 1.9±0.02",0.9 ± 0.2 µL
same,Neurological function (rearing behavior),"[9]; 24 hr after injury, 3-min observation",significant neurological functional improvement; also recorded: significantly better; also recorded: improves neurological function
same,Gelatinase activity,recombinant MMP,the same
Cc1cccc(Nc2ccccc2C(=O)O)c1C [mefenamic acid],Neuroprotection (necrosis in cortex and subcortical structures),transient focal ischemia,no neuroprotection
same,Protection of retina against ischemic or excitotoxic insult,[10],protected
CCOc1cc(CC(=O)N[C@@H](CC(C)C)c2ccccc2N2CCCCC2)ccc1C(=O)O [repaglinide],Block or opening of the NCCa-ATP channel,NCCa-ATP channel [1],blocked
Oc1cc2c(cc1O)CN(C(=S)NCCc1ccc(Cl)cc1)CCC2 [capsazepine],Effect on rimonabant-induced and capsaicin-induced neuroprotective effects,global cerebral ischemia,reversed
Cc1c(C(=O)NN2CCCCC2)nn(-c2ccc(Cl)cc2Cl)c1-c1ccc(Cl)cc1 [rimonabant],Reduction of infarct volume,permanent MCAO,~40%
same,"Electroencephalographic changes, hyperlocomotion and memory impairment induced by global ischemia",global cerebral ischemia,antagonize
O=C(O)c1ccccc1Nc1cccc(C(F)(F)F)c1 [flufenamic acid],Protection of retina against ischemic or excitotoxic insult,[10],protected
Nc1ncnc2c1ncn2[C@@H]1O[C@H](COP(=O)(O)OP(=O)(O)OP(=O)(O)O)[C@@H](O)[C@H]1O [ATP],pEC50,"NCCa-ATP channel [1]; read-out: Block of channel opening, EC50",6.10
same,pEC50,NCCa-ATP channel [2]; [13],6.10
same,pEC50,NCCa-ATP channel [2]; Reactive Astrocytes,6.10
same,Single channel openings in inside-out patches,"[11]; 20 μM in the bath, hypoxic cells, Cs+ as cation",inhibited
CC1=NS(=O)(=O)c2cc(Cl)ccc2N1 [diazoxide],Cell blebbing,[5],reproduced
same,Block or opening of the NCCa-ATP channel,NCCa-ATP channel [1],opened
same,Channel opening in the presence of ATP,NCCa-ATP channel [1]; in the presence of ATP,increased
same,"Membrane current, reversing near 0 mV",[11]; cells maintained under hypoxic conditions,significantly increased; also recorded: activated an ohmic current
Cc1ccc(Cl)c(Nc2ccccc2C(=O)O)c1Cl [meclofenamic acid],Protection of retina against ischemic or excitotoxic insult,[10],protected
"COc1ccc(CCCOC(Cn2ccnc2)c2ccc(OC)cc2)cc1 (stereo not drawn) [SKF 96365, 1-(beta-[3-(4-methoxy-phenyl)propoxy]-4-methoxyphenethyl)-1H-imidazole hydrochloride]",pIC50,[12],~5.00
